According to patent US8057810B2, “Peptide substance revealing an immunogeroprotective effect, pharmaceutical composition on its base and the method of its application” (priority 2006, dated 2011):
Residues, ends and D or L forms follow the SMILES beside them.

Assays:
[1] = system: male guinea pigs; details: guinea pig, in vivo
Method: (§1) Common toxicity of H-Glu-Asp-Pro-OH was studied according to the requirements stated in the “Manual for experimental (pre-clinical) study of new pharmacological substances” (2005): acute toxicity in case of single administration of the substance and sub-acute and chronic toxicity in case of long-term administration of the peptide.
(§2) The study of acute toxicity was performed on 60 white mongrel male mice with body weight of 18-21 g. The animals were randomly subdivided into 6 equal groups. The substance was administered to the animals once, intramuscularly, in the doses of 1 mg/kg, 2 mg/kg, 3 mg/kg, 4 mg/kg, 5 mg/kg in 0.25 ml of sterile 0.9% NaCl solution. The control animals received 0.9% NaCl solution in the same volume. The study of subacute toxicity was performed on 50 white mongrel male rats with body weight of 170-210 g. Experimental animals received the substance daily, intramuscularly for 90 days in the doses of 1 μg/kg, 0.1 mg/kg, 1 mg/kg in 0.5 ml of sterile 0.9% NaCl solution. […] Upon completion of the experiment biochemical and coagulologic indices of the blood were also evaluated. […] Traditional methods were used for the evaluation of the following indices of the animals' peripheric blood: the quantity of erythrocytes, hemoglobin, reticulocytes, thrombocytes, leukocytes, leukocyte formula, erythrocyte sedimentation rate (ESR), erythrocyte resistance. […]

[2] = system: white mongrel male mice; test: Acute toxicity, single intramuscular administration; format: in vivo; details: single i.m. 1-5 mg/kg, dose exceeding the therapeutic one by more than 5000 times
Method: as §1, §2

[3] = system: peritoneal macrophages; test: Production of lymphocyte activation factors (LAF) by peritoneal macrophages; format: cell-based, mice
Source text: The peculiarities of LAF production by peritoneal macrophages in young and ageing mice, as well as the influence of peptide H-Glu-Asp-Pro-OH on this index were studied. LAF activity of the macrophages was estimated judging by their ability to exert a comitogenic effect on the proliferation of thymocytes, stimulated by suboptimal lectin doses in vitro.
The same tendency to the change in LAF production by macrophages was observed under the effect of peptide H-Glu-Asp-Pro-OH in young mice, but not in the whole range of studied concentrations.

[4] = system: lymphocytes taken from very old patients; test: Chromatin in blood lymphocytes of old patients in vitro; format: cell-based, human; details: 0.01 μg/ml; lymphocytes of patients aged 75-88
Method: Peptide H-Glu-Asp-Pro-OH effect on the system of chromatin domains was studied in old people lymphocytes cultures, in particular on chromatin reactivation such as in deheterochromatinization of heterocliromatin satellite filaments (activity of synthetic processes in ribosomal genes, total heterochromatin, structural heterochromatin (changeability of C-blocks of the 1, 9 and 16 chromosomes) and optional heterochromatin.
The studies were conducted on the chromosomes of 150 PHA-stimulated and 40 PHA-non-stimulated lymphocyte cultures, obtained from 95 healthy patients aged 75-88 (control—25 donors aged 20-40). There were studied 2 cell cultures from each patient —one intact and one with peptide H-Glu-Asp-Pro-OH added into the cultural medium up to the ultimate concentration of 0.01 μg/ml. To study each parameter there were analyzed from 30 up to 50 metaphases of both intact lymphocyte cultures and those with added peptide (10 cultures of each).
To estimate ribosomal genes activity in intact cultures and under the effect of the peptide there were used methods of Ag-banding and of the registration of nucleolar organizers regions (NOR) of acrocentric chromosomes. Changeability of the activity level was estimated comparing two binomial totals.
Polymorphism of structural C-heterochromatin of the 1, 9 and 16 chromosomes was estimated. For comparative analysis of C-stained chromosomes of intact cultures and those treated with the peptide there was used a standard system of classification, according to which the size of the 1, 9, 16 chromosomes C-segments were compared to the chromosome 16 short leg and the results were divided into 5 categories—a, b, c, d, e. The changeability of facultative heterochromatin was estimated according to the frequency of sister chromatid exchange (SCE) in intact and peptide-treated lymphocytes.

[5] = system: old rats' thymus explants; test: Development of thymus explants taken from old rats (area index); format: cell-based; details: 0.5 ng/ml; 3rd day of cultivating; rats aged 24 months
Method: The experiments were staged on 35 fragments of the thymus and 45 fragments of the spleen taken from rats aged 24 months. Nutritional medium for cultivation consisted of 35% Eagle's solution, 25% calf fetal serum, 35% Hanx solution, 5% chicken embryonic extract, with the addition of glucose (0.6%), insulin (0.5 U/ml), penicillin (100 U/ml), glutamin (2 mM). […]
Peptide H-Glu-Asp-Pro-OH was added into the experimental medium in concentrations of 0.5, 10 and 100 ng/ml.
Area index (AI)—the ratio of total explant area including the growth zone to the initial area of thymus or spleen fragment was used as a criterion for measuring the biological activity. AI values were expressed in percent, control AI value being taken as 100%.

[6] = system: white mongrel male rats; test: Subacute toxicity, 90 days intramuscular; format: in vivo; details: i.m. daily for 90 days, 1 μg/kg, 0.1 mg/kg, 1 mg/kg (100-1000 times the therapeutic dose)
Method: as §1, §2

[7] = ageing mice 19-20 months, 0.5 to 500 ng/ml

N[C@@H](CCC(=O)O)C(=O)N[C@@H](CC(=O)O)C(=O)N1CCC[C@H]1C(=O)O [Peptide H-Glu-Asp-Pro-OH, glutamyl-aspartyl-proline] (H-Glu-Asp-Pro-OH)
Changes in blood morphology, biochemical indices, ESR, erythrocyte resistance [1]: no statistically significant changes | Acute toxicity: toxic reactions [2]: does not cause toxic reactions | LAF production by non-stimulated peritoneal macrophages [3, 7]: induces the production of LAF | LAF production under the effect of LPS [3, 7]: increases the production of LAF | Change in LAF production by macrophages ([3]; young mice 2 months, not in the whole range of studied concentrations): same tendency | Associated acrocentric chromosomes (per cell) [4]: 2.32 ± 0.12 per cell | Deheterochromatinization of optional heterochromatin - SCE (per cell) [4]: 8.4 ± 0.5 per cell | Structural heterochromatin (C-blocks), chromosome 1 [4]: Deheterochro- | Structural heterochromatin (C-blocks), chromosome 9 [4]: Deheterochro- | Structural heterochromatin (C-blocks), chromosome 16 [4]: Stable | Total heterochromatin [4]: Deheterochro- | Area index (AI) in thymus explants, increase as compared to the control AI [5]: 24% | Subacute toxicity: side effects [6]: absence of any side effects
